The IC50 is the point on the concentration scale where inhibition reaches its midpoint. Higher therefore signals weaker potency.

The results in this text go back to ChEMBL document CHEMBL1138422, “Anti-influenza virus activity of biflavonoids” (Bioorg Med Chem Lett, 2007).

Molecules are shown by their SMILES. ≈ marks a conversion by molar mass, not a printed value. Calls of active or inactive are those of the source. The rule behind the calls is not given here. Some results are limits rather than exact numbers.

A short description of series [1]: Inhibition of influenza A/Guizhou/54/89(H3N2) virus sialidase after 10 mins by fluorometric assay. Also noted: species or system Influenza A virus (A/Guizhou/54/89(H3N2)).
A further series relates to MDCK. The series is described as follows: Cytotoxicity in influenza A/PR/8/34 virus infected MDCK cells after 3 days by MTT assay. Conditions: dog, 72 h. The class given is cell-based, Canis lupus familiaris. On the technique in general: Formazan colour is commonly taken as a measure of viable cells.
Series [2] is described as follows: Inhibition of influenza A/PR/8/34(H1N1) virus sialidase after 10 mins by fluorometric assay. Also noted: species or system Influenza A virus (A/Puerto Rico/8/1934(H1N1)).
A short description of series [3]: Inhibition of influenza B/Ibaraki/2/85 virus sialidase after 10 mins by fluorometric assay. Also noted: species or system Influenza B virus (B/Ibaraki/2/85).
The test system of series [4] is Influenza A virus (A/Puerto Rico/8/1934(H1N1)). The series can be described thus: Antiinfluenza virus activity in mouse infected with influenza virus A/PR/8/34(H1N1) assessed as survival rate at 0.5 mg/kg administered intranasally after 21 days. The class given is functional, BALB/c.
Series [5] concerns Influenza A virus. The series can be described thus: Antiinfluenza virus activity in mouse infected with influenza virus A/PR/8/34(H1N1) assessed as survival rate at 0.5 mg/kg administered intranasally after 10 days. Format: functional, A/Puerto Rico/8/1934(H1N1).
For series [6], the system named is Influenza A virus. The series can be described thus: Inhibition of influenza virus A/PR/8/34(H1N1) proliferation on MDCK cells at 12.5 ug/mL. Format: functional, organism-based. Conditions: A/Puerto Rico/8/1934(H1N1).

Consider `COC(=O)[C@@]1(Oc2cc(O)c3c(=O)cc(-c4ccc(O)cc4)oc3c2-c2cc(-c3cc(=O)c4c(O)cc(OC)cc4o3)ccc2OC)C[C@H](OC(C)=O)[C@@H](NC(C)=O)[C@H]([C@H](OC(C)=O)[C@@H](COC(C)=O)OC(C)=O)O1` (stereo in doubt; 6R), for which the IC50 was > 10 µg/mL in series [1] and 79.2 µg/mL (≈ 76.2 µM) in series [2]. For the same compound, in the series on MDCK, the Activity entry is listed as “Non-toxic”.

Turning to `COC(=O)[C@@]1(Oc2cc(O)c3c(=O)cc(-c4ccc(O)cc4)oc3c2-c2cc(-c3cc(=O)c4c(O)cc(OC)cc4o3)ccc2OC)C[C@H](OC(C)=O)[C@@H](NC(C)=O)[C@H]([C@H](OC(C)=O)[C@@H](COC(C)=O)OC(C)=O)O1` (stereo in doubt; 6S), the half-inhibitory concentration (IC50) in series [1] is 1.1 µg/mL (≈ 1.06 µM); in series [3], > 100 µg/mL; in series [2] it was > 100 µg/mL.

`COC(=O)[C@@]1(Oc2ccc(-c3cc(=O)c4c(O)cc(O[C@]5(C(=O)OC)C[C@H](OC(C)=O)[C@@H](NC(C)=O)[C@H]([C@H](OC(C)=O)[C@@H](COC(C)=O)OC(C)=O)O5)c(-c5cc(-c6cc(=O)c7c(O)cc(OC)cc7o6)ccc5OC)c4o3)cc2)C[C@H](OC(C)=O)[C@@H](NC(C)=O)[C@H]([C@H](OC(C)=O)[C@@H](COC(C)=O)OC(C)=O)O1` (stereo in doubt; 7R) gave an IC50 in series [1] of 1.35 µg/mL (≈ 0.892 µM).

With `COC(=O)[C@@]1(Oc2ccc(-c3cc(=O)c4c(O)cc(O[C@]5(C(=O)OC)C[C@H](OC(C)=O)[C@@H](NC(C)=O)[C@H]([C@H](OC(C)=O)[C@@H](COC(C)=O)OC(C)=O)O5)c(-c5cc(-c6cc(=O)c7c(O)cc(OC)cc7o6)ccc5OC)c4o3)cc2)C[C@H](OC(C)=O)[C@@H](NC(C)=O)[C@H]([C@H](OC(C)=O)[C@@H](COC(C)=O)OC(C)=O)O1` (stereo in doubt; 7S), the values for the IC50 in series [1], in series [3] and in series [2] were > 10 µg/mL, > 100 µg/mL and > 100 µg/mL, respectively. Further, in the series on MDCK, the Activity entry is given as “Non-toxic”.

`COc1cc(O)c2c(=O)cc(-c3ccc(OC)c(-c4c(O[C@]5(C(=O)O)C[C@H](O)[C@@H](NC(C)=O)[C@H]([C@H](O)[C@H](O)CO)O5)cc(O)c5c(=O)cc(-c6ccc(O)cc6)oc45)c3)oc2c1` (stereo in doubt; 8R) [listing 1 of 2 here]: the figures for the IC50 in series [1], in series [3] and in series [2] were 0.82 µg/mL (≈ 0.956 µM), 9.11 µg/mL (≈ 10.6 µM) and 5.5 µg/mL (≈ 6.41 µM), respectively. Besides, the Activity in series [4] stood at 62.5%; in the series with Influenza A virus [5] it was 75%.

For `COc1cc(O)c2c(=O)cc(-c3ccc(OC)c(-c4c(O[C@]5(C(=O)O)C[C@H](O)[C@@H](NC(C)=O)[C@H]([C@H](O)[C@H](O)CO)O5)cc(O)c5c(=O)cc(-c6ccc(O)cc6)oc45)c3)oc2c1` (stereo in doubt; 8R) [listing 2 of 2 here], in the series on Influenza A virus [6], the result was Active.

Regarding `COc1cc(O)c2c(=O)cc(-c3ccc(OC)c(-c4c(O[C@]5(C(=O)O)C[C@H](O)[C@@H](NC(C)=O)[C@H]([C@H](O)[C@H](O)CO)O5)cc(O)c5c(=O)cc(-c6ccc(O)cc6)oc45)c3)oc2c1` (stereo in doubt; 8S) [listing 1 of 2 here], the IC50 amounted to 0.99 µg/mL (≈ 1.15 µM) in series [1], 8.64 µg/mL (≈ 10.1 µM) in series [3] and 6.35 µg/mL (≈ 7.4 µM) in series [2]. For the same compound, the Activity result in the series on MDCK is “Non-toxic”; in series [4] it was 56%; with Influenza A virus [5], 78%.

For the compound `COc1cc(O)c2c(=O)cc(-c3ccc(OC)c(-c4c(O[C@]5(C(=O)O)C[C@H](O)[C@@H](NC(C)=O)[C@H]([C@H](O)[C@H](O)CO)O5)cc(O)c5c(=O)cc(-c6ccc(O)cc6)oc45)c3)oc2c1` (stereo in doubt; 8S) [listing 2 of 2 here], the outcome in the series with Influenza A virus [6] was Active.

On to `COc1cc(O)c2c(=O)cc(-c3ccc(OC)c(-c4c(O[C@]5(C(=O)O)C[C@H](O)[C@@H](NC(C)=O)[C@H]([C@H](O)[C@H](O)CO)O5)cc(O)c5c(=O)cc(-c6ccc(O[C@]7(C(=O)O)C[C@H](O)[C@@H](NC(C)=O)[C@H]([C@H](O)[C@H](O)CO)O7)cc6)oc45)c3)oc2c1` (stereo in doubt; 9R), for which the IC50 worked out at 6.57 µg/mL (≈ 5.72 µM) in series [1], 9.05 µg/mL (≈ 7.88 µM) in series [3] and 6.61 µg/mL (≈ 5.75 µM) in series [2].

For `COc1cc(O)c2c(=O)cc(-c3ccc(OC)c(-c4c(O[C@]5(C(=O)O)C[C@H](O)[C@@H](NC(C)=O)[C@H]([C@H](O)[C@H](O)CO)O5)cc(O)c5c(=O)cc(-c6ccc(O[C@]7(C(=O)O)C[C@H](O)[C@@H](NC(C)=O)[C@H]([C@H](O)[C@H](O)CO)O7)cc6)oc45)c3)oc2c1` (stereo in doubt; 9S), the IC50 in series [1] turned out to be 0.94 µg/mL (≈ 0.818 µM); in series [3] it was 9.34 µg/mL (≈ 8.13 µM); in series [2], 6.99 µg/mL (≈ 6.08 µM). The Activity result in the series on MDCK is recorded as “Non-toxic”.

Turning to `COc1c(O)cc(O)c2c(=O)cc(-c3ccc(O)cc3)oc12` [4'-HYDROXYWOGONIN], the IC50 in series [1] was found to be 8.95 µg/mL (≈ 29.8 µM); in series [3], 6.58 µg/mL (≈ 21.9 µM); in series [2], 9.78 µg/mL (≈ 32.6 µM).

Consider `COc1cc(O)c2c(=O)cc(-c3ccc(OC)c(-c4c(O)cc(O)c5c(=O)cc(-c6ccc(O)cc6)oc45)c3)oc2c1` [GINKGETIN], for which the results for the IC50 in series [1], in series [3] and in series [2] were 9.78 µg/mL (≈ 17.3 µM), > 100 µg/mL and 55 µg/mL (≈ 97.1 µM), respectively. Moreover, the Activity result in the series with MDCK was “Toxic”.
